Measured values published in BindingDB's records for doi:10.1016/j.chembiol.2011.05.008 (Stanford University, 2011).
*1 amine or outer side, *2 acyl side, *3 side chain or, on linkers, in order; H or OH if unused. Where a SMILES comes first, the peptide text is derived from it. [ ]: non-standard residue; d: D form. The star is where a group is joined. ξ: configuration not given here. ξThr(3S) = C[C@H](O[*:3])C(N[*:1])C(=O)[*:2]; X2 = O=C(CN*)COC(=O)c1c2ccccc2cc2ccccc12; X1 = O=C(Cc1ccc(O)c([N+](=O)[O-])c1)*

How the values were obtained:
Assay in all cases: Fluorogenic Assay
Details in all cases: pH 8; 37 °C
[1] = biological target: T1, Sentrin-specific protease 2 (Homo sapiens, UniProt Q9HC62)
T1 sequence (Q9HC62 whole entry): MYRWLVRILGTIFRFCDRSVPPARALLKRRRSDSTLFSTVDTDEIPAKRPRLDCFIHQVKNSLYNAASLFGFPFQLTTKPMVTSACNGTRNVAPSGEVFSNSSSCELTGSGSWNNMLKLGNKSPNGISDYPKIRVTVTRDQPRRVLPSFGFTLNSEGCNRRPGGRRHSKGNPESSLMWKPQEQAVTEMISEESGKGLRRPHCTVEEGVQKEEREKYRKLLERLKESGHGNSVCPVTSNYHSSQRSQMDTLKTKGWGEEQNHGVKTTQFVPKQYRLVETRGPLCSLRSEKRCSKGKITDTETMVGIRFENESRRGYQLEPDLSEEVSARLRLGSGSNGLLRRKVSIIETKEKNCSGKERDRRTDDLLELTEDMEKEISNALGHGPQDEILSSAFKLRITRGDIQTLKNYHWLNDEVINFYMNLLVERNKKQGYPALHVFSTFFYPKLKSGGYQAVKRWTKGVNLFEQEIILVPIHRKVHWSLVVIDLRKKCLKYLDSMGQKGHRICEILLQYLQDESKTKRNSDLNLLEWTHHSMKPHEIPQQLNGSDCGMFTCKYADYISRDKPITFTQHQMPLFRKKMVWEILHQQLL

[2] = biological target: T2, Sentrin-specific protease 6 (Homo sapiens, UniProt Q9GZR1)
T2 sequence (Q9GZR1 whole entry): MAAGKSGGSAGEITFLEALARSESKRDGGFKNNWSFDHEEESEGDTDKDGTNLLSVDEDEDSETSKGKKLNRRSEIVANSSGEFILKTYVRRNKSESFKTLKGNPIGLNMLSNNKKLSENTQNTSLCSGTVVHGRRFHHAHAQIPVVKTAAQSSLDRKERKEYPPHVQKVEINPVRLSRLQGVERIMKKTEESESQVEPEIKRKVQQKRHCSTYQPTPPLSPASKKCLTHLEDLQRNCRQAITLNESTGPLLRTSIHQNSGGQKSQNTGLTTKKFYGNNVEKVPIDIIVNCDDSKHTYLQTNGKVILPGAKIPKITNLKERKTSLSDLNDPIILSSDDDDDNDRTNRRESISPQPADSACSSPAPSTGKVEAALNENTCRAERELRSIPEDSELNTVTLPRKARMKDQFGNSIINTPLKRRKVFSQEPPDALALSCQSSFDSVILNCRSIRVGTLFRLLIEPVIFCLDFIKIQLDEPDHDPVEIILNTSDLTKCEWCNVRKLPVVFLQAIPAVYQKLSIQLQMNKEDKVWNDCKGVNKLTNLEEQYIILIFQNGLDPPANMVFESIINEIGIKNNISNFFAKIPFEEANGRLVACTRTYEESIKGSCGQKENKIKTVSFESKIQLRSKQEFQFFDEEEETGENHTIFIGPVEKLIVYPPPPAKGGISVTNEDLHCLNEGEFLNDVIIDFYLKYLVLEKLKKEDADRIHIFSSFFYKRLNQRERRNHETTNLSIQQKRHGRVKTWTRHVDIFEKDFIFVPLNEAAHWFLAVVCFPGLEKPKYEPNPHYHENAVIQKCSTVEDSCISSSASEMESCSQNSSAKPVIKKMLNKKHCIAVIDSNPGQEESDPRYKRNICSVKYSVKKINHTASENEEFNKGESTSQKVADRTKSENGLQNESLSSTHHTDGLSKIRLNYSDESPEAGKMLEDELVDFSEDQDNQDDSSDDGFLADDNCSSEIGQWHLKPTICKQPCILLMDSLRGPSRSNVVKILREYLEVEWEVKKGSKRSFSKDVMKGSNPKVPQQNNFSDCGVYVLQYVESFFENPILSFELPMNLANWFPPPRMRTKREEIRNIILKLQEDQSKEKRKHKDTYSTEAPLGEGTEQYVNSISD

[3] = biological target: T3, Sentrin-specific protease 7 (Homo sapiens, UniProt Q9BQF6)
T3 sequence (Q9BQF6 whole entry): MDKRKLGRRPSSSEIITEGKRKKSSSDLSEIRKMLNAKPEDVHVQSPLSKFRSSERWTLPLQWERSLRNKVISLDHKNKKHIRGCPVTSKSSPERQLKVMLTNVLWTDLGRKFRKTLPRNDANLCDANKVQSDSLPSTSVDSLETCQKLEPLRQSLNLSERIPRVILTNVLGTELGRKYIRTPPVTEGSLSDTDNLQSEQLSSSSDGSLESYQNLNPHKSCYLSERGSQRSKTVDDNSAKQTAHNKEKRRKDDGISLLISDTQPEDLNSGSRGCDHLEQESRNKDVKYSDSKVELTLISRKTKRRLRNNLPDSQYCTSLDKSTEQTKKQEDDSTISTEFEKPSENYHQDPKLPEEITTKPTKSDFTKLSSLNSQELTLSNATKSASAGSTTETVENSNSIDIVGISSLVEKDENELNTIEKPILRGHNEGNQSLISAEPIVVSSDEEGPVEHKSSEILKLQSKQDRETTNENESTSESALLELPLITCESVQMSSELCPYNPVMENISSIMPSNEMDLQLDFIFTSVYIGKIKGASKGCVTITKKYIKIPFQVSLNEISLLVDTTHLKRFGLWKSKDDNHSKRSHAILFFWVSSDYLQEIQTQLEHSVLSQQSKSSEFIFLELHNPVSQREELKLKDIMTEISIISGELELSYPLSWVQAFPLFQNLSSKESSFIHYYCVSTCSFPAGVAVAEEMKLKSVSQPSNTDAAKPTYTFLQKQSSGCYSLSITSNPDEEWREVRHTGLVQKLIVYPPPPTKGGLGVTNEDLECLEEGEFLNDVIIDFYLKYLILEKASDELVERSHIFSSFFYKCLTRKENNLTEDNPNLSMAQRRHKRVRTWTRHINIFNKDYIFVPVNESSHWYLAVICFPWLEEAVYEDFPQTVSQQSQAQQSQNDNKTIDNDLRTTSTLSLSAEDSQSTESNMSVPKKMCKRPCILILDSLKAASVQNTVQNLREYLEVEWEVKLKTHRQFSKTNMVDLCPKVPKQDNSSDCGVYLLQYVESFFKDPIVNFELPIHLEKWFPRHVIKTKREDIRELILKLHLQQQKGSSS

[4] = biological target: T4, Sentrin-specific protease 1 (Homo sapiens, UniProt Q9P0U3)
T4 sequence (Q9P0U3 whole entry): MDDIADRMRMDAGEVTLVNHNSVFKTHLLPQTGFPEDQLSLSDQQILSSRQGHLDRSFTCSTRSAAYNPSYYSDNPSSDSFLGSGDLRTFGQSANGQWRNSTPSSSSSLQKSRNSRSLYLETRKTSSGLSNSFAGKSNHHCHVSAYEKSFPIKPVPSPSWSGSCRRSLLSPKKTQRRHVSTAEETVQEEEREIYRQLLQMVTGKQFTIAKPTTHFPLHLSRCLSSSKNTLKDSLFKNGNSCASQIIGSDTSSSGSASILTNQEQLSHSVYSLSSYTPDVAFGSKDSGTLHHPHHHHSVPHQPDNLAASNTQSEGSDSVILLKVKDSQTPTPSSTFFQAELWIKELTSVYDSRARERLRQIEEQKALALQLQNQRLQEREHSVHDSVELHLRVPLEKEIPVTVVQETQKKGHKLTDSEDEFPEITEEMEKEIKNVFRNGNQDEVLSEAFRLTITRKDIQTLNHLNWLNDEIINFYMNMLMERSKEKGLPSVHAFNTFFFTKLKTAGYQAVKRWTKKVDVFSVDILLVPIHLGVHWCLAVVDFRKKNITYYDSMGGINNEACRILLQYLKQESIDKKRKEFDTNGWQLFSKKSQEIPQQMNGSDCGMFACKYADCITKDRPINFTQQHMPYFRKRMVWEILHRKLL
Protocol: The fluorogenic substrate library screen was performed with hSENP1 in low salt tris buffer at final concentration of 2uM. Fluorophore release (AFC) production was measured using fluorescence plate reader at 405nm/510nm for 10-60min.

| IC50 [1] [µM] | IC50 [2] [µM] | IC50 [3] [µM] | IC50 [4] [µM] | SMILES |
| --- | --- | --- | --- | --- |
| 7 | > 100 | > 70 | 13.8 | O=C(O)CN(NC(=O)c1ccc(CNC(=O)c2cccc(C(=O)O)c2)cc1)C(=O)[C@H]1O[C@@H]1C(=O)N(Cc1cccc2ccccc12)Cc1cccc2ccccc12 [JCP-666] |
| 3.7 | > 100 | 36.5 | 7.1 | O=C(O)c1cccc(C(=O)NCc2ccc(C(=O)NNC(=O)[C@H]3O[C@@H]3C(=O)N(Cc3cccc4ccccc34)Cc3cccc4ccccc34)cc2)c1 [VEA-260] |
| 13.4 | > 40 | > 20 | 23.1 | O=C(CNC(=O)c1ccc(CNC(=O)c2cccc(C(=O)O)c2)cc1)COC(=O)c1c2ccccc2cc2ccccc12 [VEA-401] |
| 13.1 | > 100 | > 70 | 32.5 | NC(=O)CNC(=O)c1ccc(C(=O)NNC(=O)[C@H]2O[C@@H]2C(=O)N(Cc2cccc3ccccc23)Cc2cccc3ccccc23)cc1 [VEA-417] |
| 10.4 | > 100 | > 70 | 22.4 | NC(=O)[C@H](CC(=O)O)NC(=O)c1ccc(C(=O)NNC(=O)[C@H]2O[C@@H]2C(=O)N(Cc2cccc3ccccc23)Cc2cccc3ccccc23)cc1 [VEA-422] |

| SMILES | IC50 [1] [µM] | IC50 [2] [µM] | IC50 [3] [µM] | IC50 [4] [µM] |
| --- | --- | --- | --- | --- |
| C[C@H](O)C(NC(=O)[C@H](CCC(N)=O)NC(=O)Cc1ccc(O)c([N+](=O)[O-])c1)C(=O)NCC(=O)NCC(=O)COC(=O)c1c2ccccc2cc2ccccc12 (some centres not stated) [VEA-499] | 0.25 | > 60 | > 100 | 3.6 |
| C[C@H](O)C(NC(=O)[C@H](CCC(N)=O)NC(=O)[C@H](CCC(N)=O)NC(=O)Cc1ccc(O)c([N+](=O)[O-])c1)C(=O)NCC(=O)NCC(=O)COC(=O)c1c2ccccc2cc2ccccc12 (stereo partly drawn) [VEA-500] (X1-QQ[ξThr(3S)]G-X2) | 0.86 | > 40 | > 100 | > 20 |
| CC(C)C[C@H](NC(=O)Cc1ccc(O)c([N+](=O)[O-])c1)C(=O)N[C@@H](CCCNC(=N)N)C(=O)NCC(=O)NCC(=O)COC(=O)c1c2ccccc2cc2ccccc12 [VEA-561] | 5.7 | 4.2 | 4.3 | > 25 |
